≈ marks a conversion by molar mass, not a printed value.
Assays:
[1] = system: carrageenan-induced paw edema in CD-1 mice; assay: Carrageenan-induced paw edema; type: in vivo; details: first phase; for time after carrageenan at which the significant inhibition level is reached (onset of effect): dose of 0.3 mg/kg, i.p.; for dose relation of anti-inflammatory effect / maximum inhibition of edema: doses 0.1, 0.3, 1 mg/kg i.p.; for maximum inhibition of edema: Bud-21 P—Na2 maximum with either 0.3 or 1 mg/kg
Method: In Protocol 1 (paw edema), the test compounds budesonide (Bud) and budesonide 21-phosphate sodium salt (Bud 21-P Na2) have been tested. Both compounds were administered in a volume of 100 μl intraperitoneally 1 hour before the induction of the inflammatory reaction. Doses of 0.1, 0.3 e 1 mg/kg were tested.
Carrageenan edema in the paw of the CD-1 mice involves the sub-plantar administration of 50 μl of 1% carrageenan and the measurement of the increase in the volume of the paw by using a hydroplethysmometer. This experimental model has a biphasic development (Posadas et al., Br J Pharmacol 2004 May; 142(2):331-338). The first phase, which is acute, is sustained by an increase in permeability accompanied by infiltration of neutrophils, which develops and resolves between 4 and 5 hours. The second phase occurs after 24 hours and is characterized by macrophage infiltration and has the characteristics of sub chronic inflammation, which reaches its maximum after 72 hours and resolves after 5 days. Bud and Bud 21-P Na2 have been tested. Both compounds were administered in a volume of 100 μl intraperitoneally 1 hour before the induction of the inflammatory reaction. Doses of 0.1, 0.3 e 1 mg/kg were tested.

[2] = system: methacholine-induced bronchoconstriction in OVA-induced allergic Balb/c mice; assay: Lung hyperreactivity / Penh function in OVA-induced allergic asthma; type: in vivo; details: 3, 10 and 30 nmol/animal/day i.n., 4 weeks; vs untreated OVA group
Method: (§1) In Protocol 2, the test compounds Bud (MW: 430.53 g/mol) and Bud-21 P Na2 (MW: 554.48 g/mol) were administered at equimolar doses of 3, 10 and 30 nmol/animal/day, equivalent to 1.3, 4.3 and 12.9 μg/animal/day of Bud, 1.7, 5.5 and […] of Bud-21 P Na2, respectively. The compounds were dissolved in 10% sterile saline+90% DMSO (Sigma Chemical Co., St. Louis, MO) at the correspondent concentrations at which the above-mentioned doses per animal result from the intra-nasal (i.n.) administration of 10 μl/animal (5 μl/nostril) of each of the solutions.
Chicken egg-white ovalbumin (OVA; grade V, cat. A5503, Sigma Chemical Co., St. Louis, MO) was dissolved in sterile phosphate buffered saline (PBS) solution (250 μg/ml) and Al(OH)3 was added (at 13 mg/ml). This mix was used to induce the allergic sensitization of the animals by subcutaneous injection. OVA was dissolved at 1% in sterile PBS solution and this solution was nebulized (as the immunological challenges).
(§2) Mice were sensitized with two subcutaneous injections of 0.2 ml of OVA/Al(OH)3, with an interval of 7 days (Sham animals received the Al(OH)3 suspension in PBS with no OVA). Seven days after the second sensitization (i.e., 3rd week), the animals were nebulized twice a week with the 1% OVA solution (Sham and untreated OVA groups were nebulized with PBS) during 20 minutes for the next 2 weeks.
Three hours after the challenges (OVA nebulization) and daily during the next 4 weeks (following the first OVA challenge), mice were intra-nasally treated (10 μl/animal as 5 μl/nostril) with the respective compounds/vehicle, and the last dose was administered 30 min before the Penh measurement at the end of the 6th week.
Airway responsiveness in conscious, spontaneously breathing animals was measured at the end of the 6th week (i.e., after 4-week OVA challenges+treatments), 24 h after the last OVA/PBS challenge via whole body plethysmography (Buxco Europe Ltd, Winchester, UK), as previously described (Santos et al., 2014). Experiments were carried out in a quiet room by an investigator who was unaware of the nature of treatments.
Aerosolized saline (50 μl/mouse during 60 s) and then the muscarinic agonist methacholine (MCh) at increasing concentrations (3.12, 6.25, 12.5 and 25.0 mg/ml in PBS) was nebulized through an inlet of the main chamber for 3 min each to induce bronchoconstriction and readings were taken and averaged for 6 min following each nebulization. After 20 min, the baseline values usually returned at the end of this period. Enhanced pause (Penh) was measured as an indicator of bronchoconstriction and consequent increase of airway resistance as: Penh=[(expiration time/relaxation time)−1]/(maximum expiration flow/maximum inspiration flow).

[3] = system: BK- and C48/80-induced plasma extravasation in dorsal skin of C57Bl/6 mice; assay: Skin edema (plasma extravasation, Evans blue method) induced by BK or C48/80; type: in vivo; details: for BK-induced plasma extravasation / reduction of C48/80-induced plasma extravasation: 2.32 μmol/kg i.p. (1.0 mg/kg Bud, 1.3 mg/kg Bud-21 P—Na2) 60 min before i.d. injection, 30 min
Method: In Protocol 3, Bud (at doses of 1.0 and 0.30 mg/kg) and Bud 21-P Na2 (at doses of 1.3 and 0.39 mg/kg) were administered on a molar base, these doses were equivalent to […] μmol/kg of each compound, respectively. The vehicle for dissolution of the compounds was sterile saline solution (0.9% NaCl) containing 12.5% DMSO (Sigma Chemical Co., St. Louis, MO). The compound solutions were prepared at concentrations such that the administered dose per kg of body weight results from the intraperitoneal (i.p.) administration of 10 ml/kg of each of the solutions.
Skin edema was assessed in mice according to the method previously described by Costa et al. (2006), Vasc. Pharmacol; 45: 209-214 and Yshii et al (2009), Toxicon; 53: 42-52. The mice were anesthetized with urethane (25% w/v, 10 ml/kg, i.p.), had their dorsal skin shaved, and thereafter i.p. treated with the vehicle/test compounds. Fifty-five minutes later, a volume of 100 μL of Evans blue dye solution (0.25% in sterile saline) was intravenously (i.v.) injected via the tail vein. Five minutes later, the BK and C48/80 were intradermally (i.d.) injected into the dorsal skin at a fixed volume of 50 μl using a randomized scheme. The same volume of Tyrode solution 50 μl was injected as a control. Thirty minutes later, a 1 ml blood sample was obtained via cardiac puncture and the mice were killed by urethane overdose followed by cervical dislocation. The blood samples were centrifuged at 6,000 g for 4 min to obtain the plasma. The dorsal skin was removed, and the injected sites were punched out using an 8 mm diameter cork borer. A non-injected skin site distant from the injection sites was also punched and taken as a blank. The dye was extracted from each piece of skin and plasma (100 μl) samples using formamide, and the absorbance of the resulting solutions was measured at 620 nm. The plasma extravasation due to each agent (expressed in μl/site) was calculated as the ratio between the absorbance of each respective skin piece, corrected by the blank value and plasma sample solutions, properly adjusted by the dilution factors [Vasc. Pharmacol (2006); 45: 209-214]. To homogenate data due to the variability of different group of animals (inter-group variations), edema data are expressed as the fold-change response relative to the mean Tyrode (control) response of each experiment.

[4] = system: leukocyte recruitment to the bronchoalveolar space in OVA-induced allergic Balb/c mice; assay: BAL fluid total and differential leukocyte counts in OVA-induced allergic asthma; type: in vivo; details: 4 weeks, vs Sham
Method: as §1
as §2, with “[…]. […]” for “weeks.”
After Penh evaluation, the mice were anesthetized with inhaled isofluorane (5% v/v in O2) and blood samples were collected from the descending abdominal aorta. […] Total cell counts were determined using a Neubauer chamber, and differential counting was carried out in cytospin (Fanem Mod 2400; Sao Paulo, Brazil) preparations stained with May-Grünwald dye. […]

[5] = at physiological pH in the intestinal region; cited from earlier work
[6] = cited from earlier work
[7] = 0.70 μmol/kg i.p. (0.30 mg/kg Bud, 0.39 mg/kg Bud-21 P—Na2)

Compound | inhibition of edema formation ([1]; 0.1 mg/kg i.p. 60 min before carrageenan) | time after carrageenan at which the significant inhibition level is reached (onset of effect) [1] | dose relation of anti-inflammatory effect [1] | maximum inhibition of edema [1] | Penh AUC (area under Penh vs methacholine curve) [2] | Penh Emax (maximal response) [2] | C48/80-induced edema [3, 7] | BK-induced plasma extravasation [3] | reduction of C48/80-induced plasma extravasation [3] | total BAL leukocytes compared with Sham ([4]; 3 nmol/animal/day i.n.) | BAL macrophages compared with Sham ([4]; either 3 or 10 nmol/animal/day i.n.) | solubility in water [5] | logP [6] | BK-induced edema [3, 7]
Budesonide 21-phosphate sodium salt [Bud-21 P—Na2] | 50% | 2 h | dose-related anti-inflammatory effect | 70% | significantly reduced | significantly reduced | significantly inhibited | abolished | approximately 50% | – | – | – | – | –
CCCC1OC2CC3C4CCC5=CC(=O)C=CC5(C)C4C(O)CC3(C)C2(C(=O)CO)O1 (stereo not drawn) [Bud, 11β,21-dihydroxy-16α,17α-(butylidenebis(oxy))pregna-1,4-diene-3,20-dione] | – | 6 h | not dose-related | about 50% | significant reduction of this response just at the highest dose | significant reduction of this response just at the highest dose | ineffective | abolished | approximately 50% | still significantly higher than that observed in the Sham mice | still significantly higher than those observed in the Sham group | 28 µg/mL (≈ 65 µM) | 3.2 | ineffective

Reference: patent publication US20250090551A1, “BUDESONIDE 21-PHOSPHATE SODIUM SALT FOR USE AS ANTI-INFLAMMATORY OR ANTIASTHMATIC AGENT” (GENETIC S.P.A., priority 2021, published 2025)
